Article PMC12115217, “3,3′-((3-Hydroxyphenyl)azanediyl)dipropionic Acid Derivatives as a Promising Scaffold Against Drug-Resistant Pathogens and Chemotherapy-Resistant Cancer” (Pathogens, 2025)

Legend:
[1] = tested on: S. aureus TCH 1516; experiment: Broth microdilution MIC, S. aureus TCH 1516; assay type: cell-based, Staphylococcus aureus; conditions: mecA MRSA isolate, USA300 lineage; CAMHB, 18 ± 2 h
From the text: (§1) The multidrug-resistant S. aureus strain TCH 1516 [USA 300-HOU-MR] was obtained from the American Type Culture Collection (ATCC, Manassas, VA, USA) (Table 1). E. faecalis AR-0671, multidrug-resistant E. coli AR-0001, K. pneumoniae AR-0003, P. aeruginosa AR-1114, and A. baumannii AR-0273 strains were acquired from the Centers for Disease Control and Prevention (CDC) AR isolate bank (Table 1). Prior to the initiation of this study, all microbial strains were stored in commercial cryopreservation systems at a temperature of −80 °C. The strains were cultivated on Columbia sheep blood agar (Becton Dickinson, Franklin Lakes, NJ, USA) or potato dextrose agar (PDA) for Candida (Becton Dickinson, Franklin Lakes, NJ, USA).
(§2) The antimicrobial activity of 3-((3-hydroxyphenyl)amino)propanoic acid derivatives was assessed by using the broth microdilution method, following the guidelines outlined by the Clinical Laboratory Standards Institute (CLSI), with modifications. In brief, the compounds were dissolved in dimethyl sulfoxide (DMSO) to attain a final concentration of 25–30 mg/mL. Vancomycin hydrochloride (MedChem express, Cat. No. HY-17362), cefazolin (MedChem express, Cat. No. HY-B1892), and meropenem (MedChem express, Cat. No. HY-13678) were used as control antimicrobial drugs and were dissolved in DMSO as described before. Dilution series were prepared in deep 96-well microplates to achieve a two-fold concentration range of 0.25, 0.5, 1, 2, 4, 8, 16, 32, and 64 µg/mL, utilizing cation-adjusted Mueller–Hinton broth (CAMHB) as the growth medium. The microplates containing the dilution series were then inoculated with fresh cultures of each tested organism to reach a final concentration of 5 × 10^4 CFU (colony-forming units) of the test organism in media containing 1% DMSO and 1× drug concentration, with a volume of 200 µL per well. Wells that were inoculated with medium containing 1% DMSO served as positive controls. Subsequently, the microplates were incubated at 35 ± 1 °C for 18 ± 2 h. Following the incubation period, the plates were examined by using a manual microplate viewer (Sensititre Manual Viewbox, ThermoFisher Scientific, Waltham, MA, USA). […] All experiments were conducted in duplicate with three technical replicates for each condition.

[2] = tested on: E. faecalis AR-0671; experiment: Broth microdilution MIC, E. faecalis AR-0671; assay type: cell-based, Enterococcus faecalis; conditions: CAMHB; for MIC: Enterococcus faecalis, AR0671, 18 ± 2 h, read-out: minimal inhibitory concentration (MIC) E. faecalis AR-0671
From the text: as §1, §2

[3] = tested on: E. coli AR-0001; experiment: Broth microdilution MIC, E. coli AR-0001; assay type: cell-based, Escherichia coli; conditions: multidrug-resistant, KPC-3; CAMHB
From the text: as §1, §2

[4] = tested on: K. pneumoniae AR-0003; experiment: Broth microdilution MIC, K. pneumoniae AR-0003; assay type: cell-based, Klebsiella pneumoniae; conditions: KPC-3; CAMHB
From the text: as §1, §2

[5] = tested on: P. aeruginosa AR-1114; experiment: Broth microdilution MIC, P. aeruginosa AR-1114; assay type: cell-based, Pseudomonas aeruginosa; conditions: IMP-15; CAMHB
From the text: as §1, §2

[6] = tested on: A. baumannii AR-0273; experiment: Broth microdilution MIC, A. baumannii AR-0273; assay type: cell-based, Acinetobacter baumannii; conditions: OXA-23, CAMHB; for MIC: Acinetobacter baumannii, AR0273, 18 ± 2 h, read-out: minimal inhibitory concentration (MIC) A. baumannii AR-0273
From the text: as §1, §2

[7] = tested on: S. aureus TCH 1516; experiment: Broth microdilution MIC, S. aureus TCH 1516; assay type: cell-based; conditions: Staphylococcus aureus, MRSA / USA300, mecA MRSA isolate, USA300 lineage; CAMHB, 18 ±; read-out: minimal inhibitory concentration (MIC) S. aureus TCH 1516
[8] = tested on: E. coli AR-0001; experiment: Broth microdilution MIC, E. coli AR-0001; assay type: cell-based; conditions: Escherichia coli, AR0001; multidrug-resistant, KPC-3; CAMHB, 18 ± 2 h; read-out: minimal inhibitory concentration (MIC) E. coli AR-0001
[9] = tested on: K. pneumoniae AR-0003; experiment: Broth microdilution MIC, K. pneumoniae AR-0003; assay type: cell-based; conditions: Klebsiella pneumoniae, AR0003; KPC-3; CAMHB, 18 ± 2 h; read-out: minimal inhibitory concentration (MIC) K. pneumoniae AR-0003
[10] = tested on: P. aeruginosa AR-1114; experiment: Broth microdilution MIC, P. aeruginosa AR-1114; assay type: cell-based; conditions: Pseudomonas aeruginosa, AR1114; IMP-15; CAMHB, 18 ± 2 h; read-out: minimal inhibitory concentration (MIC) P. aeruginosa AR-1114
[11] = tested on: FaDu cells; experiment: MTT cell viability at fixed 100 µM, FaDu cells; assay type: cell-based; conditions: 24 h, described in words (Figure 2)
Procedure: Test compounds 2–25 were dissolved in hybridoma-grade dimethyl sulfoxide (Millipore, Sigma, Burlington, MA, USA) to prepare stock solutions at concentrations of 10–25 mg/mL. […] For in vitro anticancer activity screening, the compounds were thawed at room temperature, protected from light, and the aliquots were diluted in complete cell culture media to achieve a final concentration of 100 µM and used for the in vitro assays. The cytotoxicity assays were performed in triplicate.
FaDu cells were obtained from the American Type Culture Collection (Rockville, MD, USA). HEK293 cells were kindly provided by Dr. Iliev lab at the Jill Roberts Institute for Inflammatory Bowel Disease, Weill Cornel Medicine of Cornel University (New York, NY, USA). All cells were cultivated in Dulbecco’s Modified Eagle Medium/Nutrient Mixture F-12 (DMEM/F-12) (Gibco, Waltham, MA, USA), 10% fetal bovine serum (FBS) (Gibco, Waltham, MA, USA), 100 U/mL penicillin, and 100 μg/mL streptomycin (P/S) (Gibco, Waltham, MA, USA). Culturing conditions were maintained at 37 °C in a humidified atmosphere containing 5% CO2. The culture medium was refreshed every 2–3 days, and cells were passaged upon reaching 70–80% confluence.
The in vitro inhibitory effects of the compounds were assessed by using the MTT assay. Briefly, cells were plated in 96-well plates at a density of 1 × 10⁴ cells per well. After the cells were allowed to adhere overnight at 37 °C in 5% CO₂, they were treated with compounds at a concentration of 100 µM in triplicate. Following a 20 h incubation, the MTT reagent was added, and the cells were further incubated for 4 h. The resulting formazan was solubilized in anhydrous DMSO, and absorbance was measured at 570 nm by using a microplate reader. Cell viability was calculated by using the following formula: ([AE − AB]/[AC − AB]) × 100%, where AE, AC, and AB represent the absorbance values of experimental samples, untreated controls, and blank wells, respectively. Data analysis was performed by using GraphPad Prism or QuickCalcs.

Compound | minimal inhibitory concentration (MIC) S. aureus TCH 1516 [1] [µg/mL] | minimal inhibitory concentration (MIC) E. faecalis AR-0671 [2] [µg/mL] | MIC [2] [µg/mL] | minimal inhibitory concentration (MIC) E. coli AR-0001 [3] [µg/mL] | minimal inhibitory concentration (MIC) K. pneumoniae AR-0003 [4] [µg/mL] | minimal inhibitory concentration (MIC) P. aeruginosa AR-1114 [5] [µg/mL] | MIC [6] [µg/mL] | minimal inhibitory concentration (MIC) A. baumannii AR-0273 [6] [µg/mL] | MIC [7] [µg/mL] | MIC [8] [µg/mL] | MIC [9] [µg/mL] | MIC [10] [µg/mL] | post-treatment viability (MTT assay) [11]
O=C(O)CCN1CCC(=O)c2ccc(O)cc21 [Compound 7, 3-(7-Hydroxy-4-oxo-3,4-dihydroquinolin-1(2H)-yl)propanoic Acid] | >64 | >64 | > 64 | >64 | >64 | >64 | > 64 | >64 | > 64 | > 64 | > 64 | > 64 | 
O=C(CCN(CCC(=O)N/N=C/c1ccsc1)c1cccc(O)c1)N/N=C/c1ccsc1 [Compound 18] | >64 | >64 | > 64 | >64 | >64 | >64 | > 64 | >64 | > 64 | > 64 | > 64 | > 64 | 
O=C(CCN(CCC(=O)NN=Cc1ccccc1)c1cccc(O)c1)NN=Cc1ccccc1 [Compound 8, 3,3′-((3-Hydroxyphenyl)azanediyl)bis(N′-(benzylidene)propanehydrazide)] | >64 | >64 | > 64 | >64 | >64 | >64 | > 64 | >64 | > 64 | > 64 | > 64 | > 64 | 
COc1cc(C=NNC(=O)CCN(CCC(=O)NN=Cc2cc(OC)c(OC)c(OC)c2)c2cccc(O)c2)cc(OC)c1OC [Compound 13, 3,3′-((3-Hydroxyphenyl)azanediyl)bis(N′-(3,4,5-trimethoxybenzylidene)propanehydrazide)] | >64 | >64 | > 64 | >64 | >64 | >64 | > 64 | >64 | > 64 | > 64 | > 64 | > 64 | 
CC(C)=NNC(=O)CCN(CCC(=O)NN=C(C)C)c1cccc(O)c1 [Compound 19, 3,3′-((3-Hydroxyphenyl)azanediyl)bis(N′-(propan-2-ylidene)propanehydrazide)] | >64 | >64 | > 64 | >64 | >64 | >64 | > 64 | >64 | > 64 | > 64 | > 64 | > 64 | lower activity compared with compound 22
O=C(O)CCN(CCC(=O)O)c1cccc(O)c1 [Compound 2, 3,3′-((3-Hydroxyphenyl)azanediyl)dipropionic Acid] | >64 | >64 | > 64 | >64 | >64 | >64 | > 64 | >64 | > 64 | > 64 | > 64 | > 64 | minimal cytotoxicity
